Measurements from patent US11351178B2, “Selective HDAC6 inhibitors” (ITALFARMACO S.P.A., priority 2017, dated 2022).

How the values were obtained:
[1] = tested on: B 697 promyelocytic cell line; test: Cytotoxicity on 697 cell line (CellTiter 96); assay type: cell-based; details: 72 hours incubation, read-out: 697 TOXICITY
Procedure: Cytotoxic activity was evaluated on B 697 […] cell line for all synthesized compounds and on peripheral blood mononuclear cells (PBMCs) for compounds showing a good potency/selectivity profile.
Cells were seeded in plate (2×10^4 cells per well for 697, 5×10^5 cells per well for PBMCs). The test compounds (concentrations from 1.5 nM to 10000 nM for PBMCs and from 1 nM to 10000 nM for 697) were added after 24 hours and incubated 72 hours. The molecules cytotoxic activity was evaluated using CellTiter 96© Aqueous One Solution Cell Proliferation Assay (Promega), which measures the mitochondria function, following the manufacturer's instructions.

recombinant human HDAC6 = biological target: T1, recombinant human HDAC6 (Homo sapiens, UniProt Q9UBN7); test: Enzymatic screening on recombinant human HDAC6; assay type: biochemical; details: Table 2; read-out: HDAC6 IC50
T1 sequence (Q9UBN7 1-1215): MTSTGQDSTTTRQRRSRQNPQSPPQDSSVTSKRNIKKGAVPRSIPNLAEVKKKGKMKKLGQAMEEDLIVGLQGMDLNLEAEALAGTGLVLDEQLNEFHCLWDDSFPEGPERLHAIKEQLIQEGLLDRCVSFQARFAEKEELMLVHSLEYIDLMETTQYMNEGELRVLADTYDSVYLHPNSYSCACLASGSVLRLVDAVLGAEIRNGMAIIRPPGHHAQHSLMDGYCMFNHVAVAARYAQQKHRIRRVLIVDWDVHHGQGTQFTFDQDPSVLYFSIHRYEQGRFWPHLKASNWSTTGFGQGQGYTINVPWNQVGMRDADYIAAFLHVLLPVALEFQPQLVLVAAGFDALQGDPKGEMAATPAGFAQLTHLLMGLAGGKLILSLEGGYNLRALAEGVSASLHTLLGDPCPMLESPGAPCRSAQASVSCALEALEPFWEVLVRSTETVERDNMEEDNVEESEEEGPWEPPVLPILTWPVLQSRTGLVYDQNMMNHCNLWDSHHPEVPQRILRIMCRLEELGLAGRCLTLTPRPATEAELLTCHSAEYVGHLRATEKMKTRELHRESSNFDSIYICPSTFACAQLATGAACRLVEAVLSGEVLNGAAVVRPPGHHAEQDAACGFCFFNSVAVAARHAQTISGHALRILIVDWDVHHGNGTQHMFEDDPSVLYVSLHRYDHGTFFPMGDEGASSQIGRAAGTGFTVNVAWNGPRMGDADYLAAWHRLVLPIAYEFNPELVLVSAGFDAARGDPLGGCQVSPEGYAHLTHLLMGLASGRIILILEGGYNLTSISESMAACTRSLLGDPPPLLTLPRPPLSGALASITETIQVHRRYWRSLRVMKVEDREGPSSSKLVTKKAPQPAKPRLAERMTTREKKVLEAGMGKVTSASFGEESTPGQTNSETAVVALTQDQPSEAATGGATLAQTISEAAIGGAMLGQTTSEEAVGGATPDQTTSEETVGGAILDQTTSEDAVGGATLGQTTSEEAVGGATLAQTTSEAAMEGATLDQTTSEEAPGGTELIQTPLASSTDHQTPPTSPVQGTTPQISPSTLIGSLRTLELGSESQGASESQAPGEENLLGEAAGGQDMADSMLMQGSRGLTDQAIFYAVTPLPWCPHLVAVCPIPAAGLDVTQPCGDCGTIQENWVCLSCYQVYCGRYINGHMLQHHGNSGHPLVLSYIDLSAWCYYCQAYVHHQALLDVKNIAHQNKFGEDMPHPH
Method in brief: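 Step one: pre-incubate recombinant human HDAC with test compound at 30 °C, with duration set per isoform. Step two: add fluorogenic-type acetyl-lysine substrate (FLUOR DE LYS, its Green variant, or trifluoroacetyl-L-lysine), 2× concentrated in Tris-HCl pH 8 buffer with NaCl, Tween-20 and glycerol. Step three: react at 30 °C.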

[2] = Stability to Phase I metabolism in rat S9 liver fraction; assay type: in vitro ADME; details: after 90 min, 37° C.
Procedure: Test compounds were incubated in rat and human liver S9 fraction at 37° C. up to 90 minutes in order to evaluate their stability to Phase I metabolism by hepatic enzymes. […] The reaction was stopped placing samples on ice bath and adding acidified acetonitrile. After centrifugation (10 minutes at 14000 rpm) an aliquot of the supernatant was diluted water, filtered with 0.45 μm regenerated cellulose syringe filters and injected in HPLC-UV or in LC-MS/MS. The percentages of the amount remaining at the various incubation times with respect to the initial amount were calculated. The intrinsic clearance was also calculated.

Stability in rat plasma = assay type: in vitro ADME; details: after 4 hours, 37° C.
Procedure: In order to evaluate the stability to circulating enzymes, test compounds were incubated in human and rat plasma at 37° C. in a thermostated oscillating bath. Each test compound was incubated at μM (50 μM when the samples were analysed by UV/HPLC, 1 or 2 μM when the samples were analysed by LC-MS/MS) concentration for 0, 15, 30 min and 1, 2 and 4 hours. The reaction was stopped placing tubes on ice bath and adding acidified acetonitrile. After centrifugation for 10 minutes at 14000 rpm, an aliquot of the supernatant was diluted with water, filtered with 0.45 μm syringe filters and injected in HPLC-UV or in LC-MS/MS. The percentages of amount remaining at the various times of incubation with respect to initial amount were calculated. The half-life in plasma was also calculated.

`Cn1c(Sc2ccc(C(=O)NO)cc2)nnc1C1CCN(C(=O)OC(C)(C)C)CC1` [comp. 82, tert-butyl 4-[5-[4-(hydroxycarbamoyl)phenyl]sulfanyl-4-methyl-1,2,4-triazol-3-yl]piperidine-1-carboxylate] gave an IC50 [1] of 6500 nM and an IC50 (recombinant human HDAC6) of 27 nM.
In the case of `Cn1c(Sc2c(F)cc(C(=O)NO)cc2F)nnc1C1(c2cccc(F)c2)CCCC1` [comp. 102, 3,5-difluoro-4-[[5-[1-(3-fluorophenyl)cyclopentyl]-4-methyl-1,2,4-triazol-3-yl]sulfanyl]benzenecarbohydroxamic acid], the “residual percentage in rat S9 fraction” value [2] is reported as 16%, the “residual percentage in rat plasma” value (Stability in rat plasma) is reported as 82% and the IC50 (recombinant human HDAC6) is reported as 33 nM.
With `COc1ccc(C2(c3nnc(Sc4c(F)cc(C(=O)NO)cc4F)n3C)CCCCC2)cc1` [comp. 103, 3,5-difluoro-4-[[5-[1-(4-methoxyphenyl)cyclohexyl]-4-methyl-1,2,4-triazol-3-yl]sulfanyl]benzenecarbohydroxamic acid] the “residual percentage in rat S9 fraction” value [2] was 5%, the “residual percentage in rat plasma” value (Stability in rat plasma) was 79% and the IC50 (recombinant human HDAC6) was 56 nM.
For `O=C(NO)c1cc(F)c(Cn2nnnc2-c2cccc(S(F)(F)(F)(F)F)c2)c(F)c1` [comp. 109, 3,5-difluoro-4-[[5-[3-(pentafluoro-lambda6-sulfanyl)phenyl]tetrazol-1-yl]methyl]benzenecarbohydroxamic acid], the “residual percentage in rat S9 fraction” value [2] was 72%, the “residual percentage in rat plasma” value (Stability in rat plasma) was 10% and the IC50 (recombinant human HDAC6) was 35 nM.
With `O=C(NO)c1ccc(Cn2nnc(-c3ccc(S(F)(F)(F)(F)F)cc3)n2)cc1` [comp. 110, 4-[[5-[4-(pentafluoro-lambda6-sulfanyl)phenyl]tetrazol-2-yl]methyl]benzenecarbohydroxamic acid] the “residual percentage in rat S9 fraction” value [2] was 16%, the “residual percentage in rat plasma” value (Stability in rat plasma) was 92% and the IC50 (recombinant human HDAC6) was 25 nM.
In the case of `O=C(NO)c1cc(F)c(Sc2nnc(CN3CCCCC3)n2-c2ccc(F)cc2)c(F)c1` [comp. 115, 3,5-difluoro-4-[[4-(4-fluorophenyl)-5-(1-piperidylmethyl)-1,2,4-triazol-3-yl]sulfanyl]benzenecarbohydroxamic acid], the “residual percentage in rat S9 fraction” value [2] is reported as 57%, the “residual percentage in rat plasma” value (Stability in rat plasma) is reported as 73% and the IC50 (recombinant human HDAC6) is reported as 122 nM.
With `O=C(NO)c1cc(F)c(Sc2nnc(N3CCCC3)n2Cc2ccco2)c(F)c1` [comp. 116, 3,5-difluoro-4-[[4-(2-furylmethyl)-5-pyrrolidin-1-yl-1,2,4-triazol-3-yl]sulfanyl]benzenecarbohydroxamic acid] the “residual percentage in rat S9 fraction” value [2] was 65%, the “residual percentage in rat plasma” value (Stability in rat plasma) was 78% and the IC50 (recombinant human HDAC6) was 25 nM.
For `O=C(NO)c1cc(F)c(Sc2nnc(N3CCOCC3)n2Cc2ccccc2)c(F)c1` [comp. 117, 4-[(4-benzyl-5-morpholino-1,2,4-triazol-3-yl)sulfanyl]-3,5-difluoro-benzenecarbohydroxamic acid], the “residual percentage in rat S9 fraction” value [2] was 88%, the “residual percentage in rat plasma” value (Stability in rat plasma) was 82% and the IC50 (recombinant human HDAC6) was 17 nM.
With `O=C(NO)c1cc(F)c(Cn2nnnc2Cc2ccccn2)c(F)c1.O=C(O)C(F)(F)F` [comp. 135, 3,5-difluoro-4-[[5-(2-pyridylmethyl)tetrazol-1-yl]methyl]benzenecarbohydroxamic acid;2,2,2-trifluoroacetic acid] the “residual percentage in rat S9 fraction” value [2] was 96%, the “residual percentage in rat plasma” value (Stability in rat plasma) was 78% and the IC50 (recombinant human HDAC6) was 93 nM.
For `Cc1nc2ccc(F)cc2cc1-c1nnc(Sc2c(F)cc(C(=O)NO)cc2F)n1C` [comp. 137, 3,5-difluoro-4-[[5-(6-fluoro-2-methyl-3-quinolyl)-4-methyl-1,2,4-triazol-3-yl]sulfanyl]benzenecarbohydroxamic acid], the “residual percentage in rat S9 fraction” value [2] was 52%, the “residual percentage in rat plasma” value (Stability in rat plasma) was 100% and the IC50 (recombinant human HDAC6) was 14 nM.
In the case of `O=C(NO)c1cc(F)c(Sc2nnc(-c3cnccn3)n2Cc2ccco2)c(F)c1` [comp. 139, 3,5-difluoro-4-[[4-(2-furylmethyl)-5-pyrazin-2-yl-1,2,4-triazol-3-yl]sulfanyl]benzenecarbohydroxamic acid], the “residual percentage in rat S9 fraction” value [2] is reported as 40%, the “residual percentage in rat plasma” value (Stability in rat plasma) is reported as 90% and the IC50 (recombinant human HDAC6) is reported as 18 nM.
For `O=C(NO)c1cc(F)c(Sc2nnc(-c3ccccn3)n2Cc2ccco2)c(F)c1` [comp. 140, 3,5-difluoro-4-[[4-(2-furylmethyl)-5-(2-pyridyl)-1,2,4-triazol-3-yl]sulfanyl]benzenecarbohydroxamic acid], the “residual percentage in rat S9 fraction” value [2] was 12%, the “residual percentage in rat plasma” value (Stability in rat plasma) was 85% and the IC50 (recombinant human HDAC6) was 14 nM.
With `O=C(NO)c1cc(F)c(Sc2nnc(-c3ccccc3F)n2Cc2ccco2)c(F)c1` [comp. 145, 3,5-difluoro-4-[[5-(2-fluorophenyl)-4-(2-furylmethyl)-1,2,4-triazol-3-yl]sulfanyl]benzenecarbohydroxamic acid] the “residual percentage in rat S9 fraction” value [2] was 7%, the “residual percentage in rat plasma” value (Stability in rat plasma) was 79% and the IC50 (recombinant human HDAC6) was 16 nM.
In the case of `Cn1c(Sc2c(F)cc(C(=O)NO)cc2F)nnc1-c1cccnc1` [comp. 153, 3,5-difluoro-4-[[4-methyl-5-(3-pyridyl)-1,2,4-triazol-3-yl]sulfanyl]benzenecarbohydroxamic acid], the “residual percentage in rat S9 fraction” value [2] is reported as 91%, the “residual percentage in rat plasma” value (Stability in rat plasma) is reported as 76% and the IC50 (recombinant human HDAC6) is reported as 25 nM.
For `COC(=O)c1ccc(Cc2nnnn2Cc2c(F)cc(C(=O)NO)cc2F)cc1` [comp. 155, methyl 4-[[1-[[2,6-difluoro-4-(hydroxycarbamoyl)phenyl]methyl]tetrazol-5-yl]methyl]benzoate], the IC50 [1] was 22700 nM and the IC50 (recombinant human HDAC6) was 172 nM.
`O=C(O)c1ccc(Cc2nnn(Cc3ccc(C(=O)NO)cc3)n2)cc1` [comp. 158, 4-[[2-[[4-(hydroxycarbamoyl)phenyl]methyl]tetrazol-5-yl]methyl]benzoic acid] showed an IC50 [1] of 16900 nM and an IC50 (recombinant human HDAC6) of 231 nM.
Work on `O=C(O)c1ccc(Cc2nnnn2Cc2ccc(C(=O)NO)cc2)cc1` [comp. 159, 4-[[1-[[4-(hydroxycarbamoyl)phenyl]methyl]tetrazol-5-yl]methyl]benzoic acid] yielded an IC50 [1] of 16900 nM and an IC50 (recombinant human HDAC6) of 1370 nM.
`O=C(O)c1ccc(Cc2nnn(Cc3c(F)cc(C(=O)NO)cc3F)n2)cc1` [comp. 160, 4-[[2-[[2,6-difluoro-4-(hydroxycarbamoyl)phenyl]methyl]tetrazol-5-yl]methyl]benzoic acid] showed an IC50 [1] of 16900 nM and an IC50 (recombinant human HDAC6) of 115 nM.
For `O=C(O)c1ccc(Cc2nnnn2Cc2c(F)cc(C(=O)NO)cc2F)cc1` [comp. 161, 4-[[1-[[2,6-difluoro-4-(hydroxycarbamoyl)phenyl]methyl]tetrazol-5-yl]methyl]benzoic acid], the IC50 [1] was 16900 nM and the IC50 (recombinant human HDAC6) was 327 nM.
For `O=C(O)c1ccc(-c2nnn(Cc3ccc(C(=O)NO)cc3)n2)nc1` [comp. 162, 6-[2-[[4-(hydroxycarbamoyl)phenyl]methyl]tetrazol-5-yl]pyridine-3-carboxylic acid], the IC50 [1] was 16900 nM and the IC50 (recombinant human HDAC6) was 138 nM.
